US7795178B2, “Fungicidal active combinations spiroxamine, prothioconazole and tebuconazole” (Bayer CropScience AG, priority 2003, dated 2010)

Assays:
Assay type in all cases: in vivo
[1] = tested on: Erysiphe graminis f.sp.tritici; assay: Erysiphe test (wheat)/protective; details: protective, application rate 125 g/ha, evaluation 6 days after inoculation
Procedure: Erysiphe Test (Wheat)/Protective To produce a suitable preparation of active compound, a commercial formulation of active compound or active compound combination is diluted with water to the desired concentration. To test for protective activity, young plants are sprayed with the active compound preparation at the stated application rate. After the spray coating has dried on, the plants are dusted with spores of Erysiphe graminis f.sp.tritici. The plants are placed in a greenhouse at a temperature of about 20° C. and a relative atmospheric humidity of about 80% to promote the development of mildew pustules. Evaluation is carried out 6 days after the inoculation. 0% means an efficacy which corresponds to that of the control, whereas an efficacy of 100% means that no infection is observed.

Leptosphaeria nodorum = Leptosphaeria nodorum test (wheat)/curative; details: curative, application rate 500 g/ha, evaluation 12 days after inoculation
Procedure: Leptosphaeria nodorum Test (Wheat)/Curative To produce a suitable preparation of active compound, a commercial formulation of active compound or active compound combination is diluted with water to the desired concentration. To test for curative activity, young plants are sprayed with a conidia suspension of Leptosphaeria nodorum. The plants remain in an incubation cabin at 20° C. and 100% relative atmospheric humidity for 48 hours and are then sprayed with the active compound preparation at the stated application rate. The plants are placed in a greenhouse at a temperature of about 15° C. and a relative atmospheric humidity of about 80%. Evaluation is carried out 12 days after the inoculation. 0% means an efficacy which corresponds to that of the control, whereas an efficacy of 100% means that no infection is observed.

[2] = tested on: Fusarium nivale var. majus; assay: Fusarium nivale (var. majus) test (wheat)/curative; details: curative, evaluation 11 days after inoculation
Procedure: Fusarium nivale (var. majus) Test (Wheat)/Curative To produce a suitable preparation of active compound, a commercial formulation of active compound or active compound combination is diluted with water to the desired concentration. To test for curative activity, young plants are sprayed with a conidia suspension of Fusarium nivale var. majus. The plants remain in an incubation cabin at 15° C. and 100% relative atmospheric humidity for 24 hours and are then sprayed with the active compound preparation at the stated application rate. After the spray coating has dried on, the plants remain in a greenhouse under transparent incubation hoods at a temperature of about 15° C. and a relative atmospheric humidity of about 100%. Evaluation is carried out 11 days after the inoculation. 0% means an efficacy which corresponds to that of the control, whereas an efficacy of 100% means that no infection is observed.

SMILES	Efficacy in % [1] [%]	Efficacy in % (Leptosphaeria nodorum) [%]	Efficacy in % found ([2]; application rate 55 g/ha) [%]	Efficacy in % found ([2]; application rate 140 g/ha) [%]
CC(C)(C)C(O)(CCc1ccc(Cl)cc1)Cn1cncn1 (stereo not drawn) [(III) tebuconazole, tebuconazole]	78	40	33	–
CCCN(CC)CC1COC2(CCC(C(C)(C)C)CC2)O1 (stereo not drawn) [(I) spiroxamine, 8-tert-butyl-1,4-dioxaspiro[4.5]decan-2-ylmethyl(ethyl)(propyl)amine]	33	0	–	17
OC(Cc1ccccc1Cl)(Cn1nc[nH]c1=S)C1(Cl)CC1 (stereo not drawn) [(II) prothioconazole, prothioconazole]	78	20	17	–
